The values below come from patent publication US11254700B2, “GSK-3β inhibitors and use thereof in methods of treatment” (UNIVERSITY OF HAWAII, priority 2017, dated 2022).

“Also recorded” adds a separate entry of the source.

Assay [1] addresses GSK-3β (Homo sapiens, UniProt P49841). As to the kind of experiment: Kinase luminescent assay (ADP-Glo), GSK-3β inhibition. Format: biochemical. Conditions: 25 μM ATP, 1 hour, room temperature; mean of quadruplicate of two experiments; read-out: IC50 against GSK-3β. As for the experimental part:
Kinase Luminescent Assay.
Kinase inhibition was assessed with the ADP-Glo Kinase Assay. […] The reaction mixture was incubated for 1 hour at room temperature followed by the addition of the ADP-Glo′ reagents according to the manufacturer's protocol. The kinase inhibitor staurosporine was used at 1 μM as a reference control. Each data point was collected in quadruplicate of two independent experiments.
A general note: ADP-Glo turns the ADP formed in a reaction into a luminescent signal.

Assay [2] deals with IgG anti-Aβ42. As to the kind of experiment: Anti-Aβ immunoglobulin (IgG) in serum by ELISA. Format: in vivo, mouse. Conditions: APP/PS1 mice, 60-day intragastric, vs model group. As for the experimental part: The backgrounds of all mice (APP/PS1 dual transgenic mice and wild-type mice with littermates) were C57/B6. Transgenic mice were randomly divided into three groups (n=20 for each group), and wild-type mice were used as controls (n=20). The control group and one group of transgenic mice (model group) were given sterilized ultrapure water, and the other two groups of transgenic mice received low- and high-dose Isoorientin (20 and 50 mg/kg, respectively) via intragastric administration for 60 days. Throughout the study-period, animals were housed in a controlled environment (temperature, 22° C.; humidity, 50-60%, 12-hour light/12-hour dark schedules), with free access to rodent chow and water. After a Morris water maze test, mice were perfused with cold phosphate-buffered saline (PBS), brain tissues were dissected and kept frozen at −80° C. until further analysis. […] Blood was collected from mice. […] The anti-Aβ immunoglobulin (IgG) was measured using an enzyme-linked immunosorbent assay (ELISA) kit according to the manufacturer's protocol (see also, Song, et al. (2017) PLoS One 12(1):e0169509). […] The optical densities at 450 nm were analyzed using a microreader (TECAN, Switzerland) and linear regression was confirmed by ab126468, polyclonal anti-amyloid fibril antibody, as positive internal control. […]

The subject of assay [3] is Aβ42. Nature of the assay: Brain Aβ42 by ELISA. It counts as in vivo, mouse. Conditions: vs model group. The protocol: The backgrounds of all mice (APP/PS1 dual transgenic mice and wild-type mice with littermates) were C57/B6. Transgenic mice were randomly divided into three groups (n=20 for each group), and wild-type mice were used as controls (n=20). The control group and one group of transgenic mice (model group) were given sterilized ultrapure water, and the other two groups of transgenic mice received low- and high-dose Isoorientin (20 and 50 mg/kg, respectively) via intragastric administration for 60 days. Throughout the study-period, animals were housed in a controlled environment (temperature, 22° C.; humidity, 50-60%, 12-hour light/12-hour dark schedules), with free access to rodent chow and water. […] For quantitation purposes, a highly specific and sensitive mouse Aβ42 ELISA kit was used (Invitrogen Corporation, Carlsbad, Calif.). Brain tissue protein was extracted by homogenizing about 100 mg brain tissue with an 8-fold mass quantity of cold 5 M guanidine-HCl and 50 mM Tris (pH 8.0), and incubating the homogenate at room temperature for 3.5 hours. […] Soluble and insoluble brain samples including cortex and hippocampus were analyzed for Aβ levels using the mouse Aβ42 ELISA kit, according to the manufacturer's instructions. […] The obtained values were corrected for the wet weight of each brain sample and expressed as μg/mg brain.

Assay [4] has as its system amyloid plaques. Nature of the assay: Thioflavin-S staining of brain plaques. Conditions: more pronounced with increasing dose. More on the design: dose or concentration left out as unconfirmed. Format: in vivo, mouse. The protocol: The backgrounds of all mice (APP/PS1 dual transgenic mice and wild-type mice with littermates) were C57/B6. Transgenic mice were randomly divided into three groups (n=20 for each group), and wild-type mice were used as controls (n=20). […] Throughout the study-period, animals were housed in a controlled environment (temperature, 22° C.; humidity, 50-60%, 12-hour light/12-hour dark schedules), with free access to rodent chow and water. After a Morris water maze test, mice were perfused with cold phosphate-buffered saline (PBS), brain tissues were dissected and kept frozen at −80° C. until further analysis. […] The brain tissue was then embedded in an OCT agent and placed at −80° C. for storage until use. […] The Thio-S staining procedure was according to known methods (Maiti, et al. (2016) Histochem. Cell Biol. 146(5):609-625). Briefly, Thio-S solution at 0.1% (w/v) was prepared by dissolving 0.1 gram of Thioflavin-S(Sigma-Aldrich) in 50% ethanol (v/v). The tissue sections were washed three times with PBS for five minutes each time. The sections were incubated with 0.1% Thio-S for 10 minutes, dipping them three times in 50% ethanol (v/v) for 10 minutes each time, and finally washing once in PBS, before being mounted, as described above. The sections were visualized using a fluorescence microscope (Leica, Germany), with excitation/emission filters (480/550 nm).

GSK-3β, sequence (P49841 whole entry): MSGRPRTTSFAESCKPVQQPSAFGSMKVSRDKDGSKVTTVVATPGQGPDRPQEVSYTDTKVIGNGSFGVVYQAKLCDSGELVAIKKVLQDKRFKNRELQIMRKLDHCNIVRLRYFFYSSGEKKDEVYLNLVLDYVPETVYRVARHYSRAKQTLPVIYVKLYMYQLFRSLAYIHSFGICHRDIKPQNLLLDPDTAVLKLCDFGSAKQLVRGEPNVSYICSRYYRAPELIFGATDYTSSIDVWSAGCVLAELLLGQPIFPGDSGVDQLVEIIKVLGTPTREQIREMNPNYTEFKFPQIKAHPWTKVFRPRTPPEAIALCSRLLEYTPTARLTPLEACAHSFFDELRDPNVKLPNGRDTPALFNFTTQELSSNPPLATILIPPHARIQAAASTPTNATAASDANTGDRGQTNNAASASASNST

In general, IC50 refers to the midpoint of a concentration-inhibition curve. For the molecule `O=c1cc(-c2ccc(O)c(O)c2)oc2cc(O)c([C@@H]3O[C@H](CO)[C@@H](O)[C@H](O)[C@H]3O)c(O)c12` [Compound 1, isoorientin], the IC50 in assay [1] came to 185 µM. The “IgG anti-Aβ42 in serum” value in assay [2] is reported as “decreased; also recorded: reduced”. Also, the “Aβ42 in brain (cortex+hippocampus)” value in assay [3] (high-dose group 50 mg/kg, oral, 60 days) is recorded as “significantly lower; also recorded: significant decrease”; in assay [3] (low-dose group) it was “no statistically significant difference”. Also, the thioflavin-S-positive plaques entry in assay [4] is “reduced”.
